Results published in US20250382274A1, “COMPOSITIONS AND METHODS FOR THE TREATMENT OF PARKINSON'S AND GAUCHER DISEASE” (CHILDREN'S HOSPITAL MEDICAL CENTER, priority 2024, published 2025).
Residue numbers refer to the chain shown, from its start. pEC50: −log10 of the molar value.

Experiments:
[1] = target: T1, GCase (purified enzyme, Velaglucerase alfa, VPRIV) (Homo sapiens, UniProt P04062); assay: GCase AC50 enzyme activity assay; type: biochemical; conditions: pH 5.6, 4-MuGlu substrate, compounds 0-40 μM
T1 construct: purchased Shire Human Genetic Therapies, Cambridge, MA
T1 sequence (P04062 40-536): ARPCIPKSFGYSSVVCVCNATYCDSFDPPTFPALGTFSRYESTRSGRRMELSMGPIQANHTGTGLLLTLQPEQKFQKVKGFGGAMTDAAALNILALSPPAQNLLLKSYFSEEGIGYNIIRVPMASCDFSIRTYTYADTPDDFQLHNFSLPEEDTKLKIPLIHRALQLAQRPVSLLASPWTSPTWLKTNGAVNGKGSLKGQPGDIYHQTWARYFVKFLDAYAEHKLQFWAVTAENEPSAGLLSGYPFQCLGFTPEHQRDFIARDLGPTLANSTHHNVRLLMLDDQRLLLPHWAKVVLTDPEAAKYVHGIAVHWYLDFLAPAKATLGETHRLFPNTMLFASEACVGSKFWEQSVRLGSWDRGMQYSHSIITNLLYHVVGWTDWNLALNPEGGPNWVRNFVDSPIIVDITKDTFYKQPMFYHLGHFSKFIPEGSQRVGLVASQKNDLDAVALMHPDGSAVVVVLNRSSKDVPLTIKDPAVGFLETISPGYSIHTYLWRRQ
Description: An in vitro enzyme assay was performed through a dose response curve of Compounds (0-40 μM) with purified enzyme (Velaglucerase alfa, VPRIV®, Shire Human Genetic Therapies, Cambridge, MA) in citric phosphate [0.025 mM] buffer (pH 5.6) where 4-MuGlu [4 mM] was the substrate. Compounds were pre-incubated with the enzyme for 40 minutes at room temperature prior to substrate addition, and then incubated at 37° C. for 1 hour. AC50 represents the concentration of a Compound that produces 50% of its maximal response in the in vitro GCase activity assay.
(§1) GCase activities were determined fluorometrically with 4-MuGlu. The relative fluorescence unit (RFU) of 4-MuGlu standard curve is generated with the plate reader (M5, Molecular Devise) as 1 n mole=56500 RFU. The human mutant Gaucher fibroblasts were purchased from Coriell Institute (Camden, NJ): N370/ΔGG (Cat #: GM00852) and L444P/L444P (cat #: GM00877)

[2] = target: T2, GCase in healthy human fibroblasts (Homo sapiens, UniProt P04062); assay: EC50 cell-based assay for GCase, healthy human fibroblasts (GCase cell); conditions: 5 days compound treatment (0-20 μM)
T2 construct: Healthy human fibroblasts (GCase cell); endogenous in cells; host or cells: healthy human fibroblasts
T2 sequence (P04062 40-536): T1 sequence (P04062 40-536)
Description: (§2) In cell assays, GCase activity measurements were carried out on harvested cell pellets on the 5th day of Compound treatment. Healthy human fibroblasts (GCase cell), mutant N370/ΔGG (GCase N370S) or L444P/L444P (GCase L444P) were incubated with the Compound (0-20 μM) for 5 days with 15% fetal bovine serum (FBS) in Dulbecco's Modified Eagle Medium (DMEM) in 100 mm culture dishes. Fresh Medium with Compound were replaced every other day. On the 5th day of Compound treatment, harvested cell pellets were lysed with 1% Na-taurocholate (Tc) and 1% Triton X-100 (Tx), and mixed with the reaction buffer which contained 0.025 mM Citric phosphate buffer (pH 5.6), 0.25% Tc/Tx and 4 mM 4-MuGlu, then incubated at 37° C. for 1 hour. EC50 represents the concentration of a Compound that produces 50% of its maximal response in the cell-based GCase activity assay.
as §1

[3] = target: T3, GCase N370S (N370/ΔGG human mutant Gaucher fibroblasts) (Homo sapiens, UniProt P04062, N409S); assay: EC50 cell-based assay for GCase, mutant N370/ΔGG fibroblasts (GCase N370S); conditions: 5 days compound treatment (0-20 μM)
T3 construct: The human mutant Gaucher fibroblasts were purchased from Coriell Institute; host or cells: human Gaucher fibroblasts N370/ΔGG
T3 sequence (P04062 40-536 N409S): T1 sequence (P04062 40-536) with N370S
Description: as §2, §1

[4] = target: T4, GCase L444P (L444P/L444P human mutant Gaucher fibroblasts) (Homo sapiens, UniProt P04062, L483P); assay: EC50 cell-based assay for GCase, mutant L444P/L444P fibroblasts (GCase L444P); conditions: 5 days compound treatment (0-20 μM)
T4 construct: The human mutant Gaucher fibroblasts were purchased from Coriell Institute; host or cells: human Gaucher fibroblasts L444P/L444P
T4 sequence (P04062 40-536 L483P): T1 sequence (P04062 40-536) with L444P
Description: as §2, §1

Row | SMILES | AC50 [1] | pEC50 [2] | pEC50 [3] | pEC50 [4]
1 | O=C(COc1ccccc1C(=O)NCC1CCO1)Nc1ccc(Br)cc1 (stereo not drawn) [Compound 2, 2-((4-bromophenylcarbamoyl)methoxy)-N-((oxetan-2-yl)methyl)benzamide] | < 10 µM | 4.00 to 5.00 | > 5.00 | 
2 | COc1c(C(=O)Nc2ccc(Br)cc2)oc2c(C(=O)NCC3CCCO3)cccc12 (stereo not drawn) [Compound 6, N2-(4-bromophenyl)-N7-((tetrahydrofuran-2-yl)methyl)-3-methoxybenzofuran-2,7-dicarboxamide] | < 10 µM | > 5.00 |  | 
3 | COc1ccc(NC(=O)C(C)(C)Oc2ccc(F)cc2C(=O)NCC2CCCO2)cc1 (stereo not drawn) [Compound 33, 2-(2-(4-methoxyphenylcarbamoyl)propan-2-yloxy)-5-fluoro-N-((tetrahydrofuran-2-yl)methyl)benzamide] | < 10 µM | > 5.00 |  | 
4 | CN1CCC(NC(=O)C(C)(C)Oc2ccccc2C(=O)NCC2CCCO2)CC1 (stereo not drawn) [Compound 37, 2-(2-(1-methylpiperidin-4-ylcarbamoyl)propan-2-yloxy)-N-((tetrahydrofuran-2-yl)methyl)benzamide] | < 10 µM | > 5.00 | > 5.00 | > 5.00

Now from value to molecule:

Row | AC50 [1] | pEC50 [2] | pEC50 [3] | pEC50 [4] | SMILES
5 | < 10 µM | > 5.00 | > 5.00 |  | O=C(Nc1ccc(Br)cc1)c1nc2cccc(C(=O)NCC3CCCO3)c2o1 (stereo not drawn) [Compound 4, N2-(4-bromophenyl)-N7-((tetrahydrofuran-2-yl)methyl)benzo[d]oxazole-2,7-dicarboxamide]
6 | < 10 µM | > 5.00 | > 5.00 | > 5.00 | COc1ccc(NC(=O)c2nc3cccc(C(=O)NCC4CCCO4)c3o2)cc1 (stereo not drawn) [Compound 8, N7-((tetrahydrofuran-2-yl)methyl)-N2-(4-methoxyphenyl)benzo[d]oxazole-2,7-dicarboxamide]
7 | < 10 µM | > 5.00 | 4.00 to 5.00 |  | COc1ccc(NC(=O)C(C)(C)Oc2ccccc2C(=O)NCC2CCCO2)cc1 (stereo not drawn) [Compound 32, 2-(2-(4-methoxyphenylcarbamoyl)propan-2-yloxy)-N-((tetrahydrofuran-2-yl)methyl)benzamide]
8 | < 10 µM | > 5.00 | > 5.00 | > 5.00 | O=C(Nc1ccc(O)cc1)c1nc2cc(F)cc(C(=O)NCC3CCO3)c2o1 (stereo not drawn) [Compound 26, 5-fluoro-N2-(4-hydroxyphenyl)-N7-(oxetan-2-ylmethyl)benzo[d]oxazole-2,7-dicarboxamide]
9 | < 10 µM | > 5.00 |  |  | CC1(C)CCC(NC(=O)C(C)(C)Oc2ccc(F)cc2C(=O)NCC2CCO2)CO1 (stereo not drawn) [Compound 39, 2-[2-[(6,6-dimethyltetrahydropyran-3-yl)amino]-1,1-dimethyl-2-oxo-ethoxy]-5-fluoro-N-(oxetan-2-ylmethyl)benzamide]
